From the C3SDB collision cross section collection

What was measured:
[1] = [M+H]+; instrument: TW; Major Mix IMS/Tof Calibration Kit (Waters)
[2] = instrument: DT, single field, calibrated with Agilent tune mix (Agilent)
[3] = instrument: TW, calibrated with phosphatidylcholines (ESI+) and phosphatidylethanolamines (ESI-)
[4] = [M+H]+; instrument: DT; stepped-field

Structure (SMILES): O=C1Nc2ccc(Br)cc2C(c2ccccn2)=NC1O (configuration not stated) [3-Hydroxybromazepam]
- collision cross section (N2) [1]: 161 Å²

Structure (SMILES): COc1ccc2cccc(CCNC(C)=O)c2c1 [Agomelatine]
- collision cross section (N2) [1]: 156.3 Å²

Structure (SMILES): CC(CN(C)C)CN1c2ccccc2Sc2ccccc21 (configuration not stated) [Alimemazine]
- collision cross section (N2) [1]: 166.8 Å²

Structure (SMILES): CN(C)CCc1c[nH]c2ccc(CS(=O)(=O)N3CCCC3)cc12 [Almotriptan]
- collision cross section (N2) [1]: 175.8 Å²

Structure (SMILES): CCCCc1oc2ccccc2c1C(=O)c1cc(I)c(OCCNCC)c(I)c1 [Amiodarone-M N-Desethyl]
- collision cross section (N2) [1]: 219.8 Å²

Structure (SMILES): CCCC1C(=O)N2C(N(C)C)=Nc3ccc(C)cc3N2C1=O (configuration not stated) [Apazone]
- collision cross section (N2) [1]: 169.5 Å²

Structure (SMILES): CN1C[C@@H]2c3ccccc3Oc3ccc(Cl)cc3[C@H]2C1 [Asenapine]
- collision cross section (N2) [1]: 167.6 Å²

Structure (SMILES): CNCC[C@@H](Oc1ccccc1C)c1ccccc1 [Atomoxetine]
- collision cross section (N2) [1]: 164.2 Å²

Structure (SMILES): CC(C)c1c(C(=O)Nc2ccccc2)c(-c2ccccc2)c(-c2ccc(F)cc2)n1CC[C@@H](O)C[C@@H](O)CC(=O)O [Atorvastatin]
- collision cross section (N2) [1]: 233 Å²

Structure (SMILES): CN(C)C(=O)Oc1cc(OC(=O)N(C)C)cc(C(O)CNC(C)(C)C)c1 (configuration not stated) [Bambuterol]
- collision cross section (N2) [1]: 189.7 Å²

Structure (SMILES): OC(CCN1CCCCC1)(c1ccccc1)C1C[C@H]2C=C[C@@H]1C2 (some centres not stated) [Biperiden]
- collision cross section (N2) [1]: 177.7 Å²

Structure (SMILES): O=C1CN=C(c2ccccn2)c2cc(Br)ccc2N1 [Bromazepam]
- collision cross section (N2) [1]: 159.8 Å²

Structure (SMILES): C[C@@H](N)Cc1c2ccoc2c(Br)c2ccoc12 [Bromodragonfly]
- collision cross section (N2) [1]: 158.1 Å²

Structure (SMILES): CO[C@]12CC[C@@]3(C[C@@H]1[C@](C)(O)C(C)(C)C)[C@H]1Cc4ccc(O)c5c4[C@@]3(CCN1CC1CC1)[C@H]2O5 [Buprenorphine]
- collision cross section (N2) [1]: 209.7 Å²

Structure (SMILES): COc1cc(CNC(=O)CCCC/C=C/C(C)C)ccc1O [Capsaicin]
- collision cross section (N2) [1]: 183 Å²

Structure (SMILES): O=C(O)COCCN1CCN(C(c2ccccc2)c2ccc(Cl)cc2)CC1 (configuration not stated) [Cetirizine]
- collision cross section (N2) [1]: 200.8 Å²

Structure (SMILES): CN(C)CCCN1c2ccccc2Sc2ccc(Cl)cc21 [Chlorpromazine]
- collision cross section (N2) [1]: 170.6 Å²

Structure (SMILES): O=C1CC(=O)N(c2ccccc2)c2cc(Cl)ccc2N1 [Clobazam-M nor]
- collision cross section (N2) [1]: 161.7 Å²

Structure (SMILES): CN1C(=O)CC(=O)N(c2ccccc2)c2cc(Cl)ccc21 [Clobazam]
- collision cross section (N2) [1]: 165.7 Å²

Structure (SMILES): CN(C)CCCN1c2ccccc2CCc2ccc(Cl)cc21 [Clomipramine]
- collision cross section (N2) [1]: 174.3 Å²

Structure (SMILES): Nc1ccc2c(c1)C(c1ccccc1Cl)=NCC(=O)N2 [Clonazepam-M 7-amino]
- collision cross section (N2) [1]: 162.5 Å²

Structure (SMILES): COC(=O)[C@H]1[C@@H](OC(=O)c2ccccc2)C[C@@H]2CC[C@H]1N2C [Cocaine]
- collision cross section (N2) [1]: 169.8 Å²

Structure (SMILES): COc1ccc2c3c1O[C@H]1[C@@H](O)C=C[C@H]4[C@@H](C2)N(C)CC[C@@]341 [Codeine]
- collision cross section (N2) [1]: 168.2 Å²

Structure (SMILES): CN1C(=O)CC[C@H]1c1cccnc1 [Cotinine]
- collision cross section (N2) [1]: 140.7 Å²

Structure (SMILES): O=C1C[N+]([O-])=C(c2ccccc2)c2cc(Cl)ccc2N1 [Demoxepam]
- collision cross section (N2) [1]: 161.7 Å²

Structure (SMILES): c1ccc(C(c2ccccc2)C2CCCCN2)cc1 (configuration not stated) [Desoxypipradrol]
- collision cross section (N2) [1]: 164.1 Å²

Structure (SMILES): O=C1CN=C(c2ccccc2)c2cc(Cl)ccc2N1 [Diazepam-M N-desmethyl]
- collision cross section (N2) [1]: 160.1 Å²

Structure (SMILES): CN1C(=O)CN=C(c2ccccc2)c2cc(Cl)ccc21 [Diazepam]
- collision cross section (N2) [1]: 164.2 Å²

Structure (SMILES): CCCCOc1cc(C(=O)NCCN(CC)CC)c2ccccc2n1 [Dibucaine]
- collision cross section (N2) [1]: 196.2 Å²

Structure (SMILES): CNCC[C@H](Oc1cccc2ccccc12)c1cccs1 [Duloxetine]
- collision cross section (N2) [1]: 171 Å²

Structure (SMILES): C/C=C1\N(C)C(C)CC1(c1ccccc1)c1ccccc1 (configuration not stated) [EDDP]
- collision cross section (N2) [1]: 166.2 Å²

Structure (SMILES): CCOC(=O)[C@H](CCc1ccccc1)N[C@@H](C)C(=O)N1CCC[C@H]1C(=O)O [Enalapril]
- collision cross section (N2) [1]: 187.2 Å²

Structure (SMILES): CCOC(=O)C(c1ccccc1)C1CCCCN1 (configuration not stated) [Ethylphenidate]
- collision cross section (N2) [1]: 159.5 Å²

Structure (SMILES): CC(C)(C(=O)O)c1ccc(C(O)CCCN2CCC(C(O)(c3ccccc3)c3ccccc3)CC2)cc1 (configuration not stated) [Fexofenadine]
- collision cross section (N2) [1]: 226.9 Å²

Structure (SMILES): CNC(C)C(=O)c1ccc(F)cc1 (configuration not stated) [Flephedrone]
- collision cross section (N2) [1]: 139.8 Å²

Structure (SMILES): COc1ccc2c3c1O[C@H]1C[C@@H](O)C=C[C@@]31CCN(C)C2 [Galantamine]
- collision cross section (N2) [1]: 166.9 Å²

Structure (SMILES): CCC1=C(C)CN(C(=O)NCCc2ccc(S(=O)(=O)NC(=O)NC3CCC(C)CC3)cc2)C1=O (configuration not stated) [Glimepiride]
- collision cross section (N2) [1]: 216.6 Å²

Structure (SMILES): Cc1cnc(C(=O)NCCc2ccc(S(=O)(=O)NC(=O)NC3CCCCC3)cc2)cn1 [Glipizide]
- collision cross section (N2) [1]: 198.9 Å²

Structure (SMILES): O=C(CCCN1CCC(O)(c2ccc(Cl)cc2)CC1)c1ccc(F)cc1 [Haloperidol]
- collision cross section (N2) [1]: 193.7 Å²

Structure (SMILES): COc1ccc2c3c1O[C@H]1C(=O)CC[C@H]4[C@@H](C2)N(C)CC[C@]314 [Hydrocodone]
- collision cross section (N2) [1]: 167.4 Å²

Structure (SMILES): OCCOCCN1CCN(C(c2ccccc2)c2ccc(Cl)cc2)CC1 (configuration not stated) [Hydroxyzine]
- collision cross section (N2) [1]: 197.4 Å²

Structure (SMILES): Cc1ccc(NC(=O)c2ccc(CN3CCN(C)CC3)cc2)cc1Nc1nccc(-c2cccnc2)n1 [Imatinib]
- collision cross section (N2) [1]: 214.6 Å²

Structure (SMILES): CC1Cc2ccccc2N1NC(=O)c1ccc(Cl)c(S(N)(=O)=O)c1 (configuration not stated) [Indapamide]
- collision cross section (N2) [1]: 185.6 Å²

Structure (SMILES): COc1ccc2c(c1)c(CC(=O)O)c(C)n2C(=O)c1ccc(Cl)cc1 [Indomethacin]
- collision cross section (N2) [1]: 179.5 Å²

Structure (SMILES): CCCCC1=NC2(CCCC2)C(=O)N1Cc1ccc(-c2ccccc2-c2nn[nH]n2)cc1 [Irbesartan]
- collision cross section (N2) [1]: 200.8 Å²

Structure (SMILES): NC1(c2ccccc2Cl)CCCCC1=O (configuration not stated) [Ketamine-M nor]
- collision cross section (N2) [1]: 147.1 Å²

Structure (SMILES): CNC1(c2ccccc2Cl)CCCCC1=O (configuration not stated) [Ketamine]
- collision cross section (N2) [1]: 149.2 Å²

Structure (SMILES): CCCCCCCCCCCCCCCCCC(=O)O[C@H](CO)COP(=O)([O-])OCC[N+](C)(C)C [LPC(18:0)]
- collision cross section (N2) ([2]; [M+HCOO]-): 241.4 Å²
- collision cross section (N2) ([2]; [M+H]+): 237.9 Å²
- collision cross section (N2) ([2]; [M+Na]+): 240.8 Å²
- collision cross section (N2) ([3]; [M+H]+): 235.7 Å²
- collision cross section (N2) [4]: 240.7 Å²

Structure (SMILES): CC/C=C\C/C=C\C/C=C\C/C=C\C/C=C\CCCC(=O)O[C@H](CO/C=C\CCCCCCCCCCCCCCCC)COP(=O)(O)OCCN [PE(p38:5)]
- collision cross section (N2) ([2]; [M+H]+): 280.2 Å²
- collision cross section (N2) ([2]; [M-H]-): 270.6 Å²
- collision cross section (N2) ([3]; [M+H]+): 278.3 Å²
- collision cross section (N2) ([3]; [M+Na]+): 279.4 Å²
- collision cross section (N2) ([3]; [M-H]-): 268.7 Å²

Structure (SMILES): CCCCC/C=C\C/C=C\C/C=C\CCCCCCC(=O)O[C@H](CO/C=C\CCCCCCCCCCCCCCCCCC)COP(=O)(O)OCCN [PE(p40:3)]
- collision cross section (N2) ([2]; [M-H]-): 277.1 Å²
- collision cross section (N2) ([3]; [M+H]+): 287.9 Å²

Structure (SMILES): CCCC/C=C\CCCCCCCC(=O)OC[C@H](COP(=O)(O)OC[C@@H](O)CO)OC(=O)CCCCCCCCC/C=C\C/C=C\CCCCC [PG(34:3)]
- collision cross section (N2) ([2]; [M-H]-): 266.2 Å²
- collision cross section (N2) ([3]; [M+Na]+): 275.1 Å²

Structure (SMILES): CC/C=C\C/C=C\C/C=C\C/C=C\CCCCC(=O)OC[C@H](COP(=O)(O)OC[C@@H](O)CO)OC(=O)CCCCCCCCC/C=C\CCCCCCCC [PG(38:5)]
- collision cross section (N2) ([2]; [M+H]+): 292.1 Å²
- collision cross section (N2) ([2]; [M+Na]+): 288.8 Å²
- collision cross section (N2) ([3]; [M+Na]+): 285.9 Å²
- collision cross section (N2) ([3]; [M-H]-): 276.5 Å²

Structure (SMILES): CC/C=C\C/C=C\C/C=C\C/C=C\C/C=C\C/C=C\CCC(=O)O[C@H](COC(=O)CCCCCCCCCCCCCCC)COP(=O)(O)OC[C@@H](O)CO [PG(38:6)]
- collision cross section (N2) ([2]; [M+H]+): 289.3 Å²
- collision cross section (N2) ([2]; [M+NH4]+): 290.2 Å²
- collision cross section (N2) ([2]; [M+Na]+): 286 Å²
- collision cross section (N2) ([3]; [M+Na]+): 284 Å²
- collision cross section (N2) ([3]; [M-H]-): 275.6 Å²

Structure (SMILES): CCCCC/C=C\C/C=C\C/C=C\C/C=C\CCCCCC(=O)OC[C@H](COP(=O)(O)OC[C@@H](O)CO)OC(=O)CCCCCCC/C=C\CCCCCCCC [PG(40:5)]
- collision cross section (N2) ([2]; [M+NH4]+): 298.9 Å²
- collision cross section (N2) ([2]; [M+Na]+): 295.2 Å²
- collision cross section (N2) ([2]; [M-H]-): 283.4 Å²
- collision cross section (N2) ([3]; [M+Na]+): 292.7 Å²
- collision cross section (N2) ([3]; [M-H]-): 283 Å²

Structure (SMILES): CCCCCCCCCC/C=C\CCCCCCCCCC(=O)O[C@H](COC(=O)CCCCCCCCCCC)COP(=O)(O)O[C@H]1C(O)C(O)C(O)[C@@H](O)C1O (some centres not stated) [PI(34:1)]
- collision cross section (N2) ([2]; [M+H]+): 294.9 Å²
- collision cross section (N2) ([2]; [M+NH4]+): 295.8 Å²
- collision cross section (N2) ([2]; [M+Na]+): 292.4 Å²
- collision cross section (N2) ([2]; [M-H]-): 283.7 Å²
- collision cross section (N2) ([3]; [M-H]-): 283.7 Å²

Structure (SMILES): CCCCC/C=C\C/C=C\CCCCCCCCCCCC(=O)O[C@H](COC(=O)CCCCCCCCCCC)COP(=O)(O)O[C@H]1C(O)C(O)C(O)[C@@H](O)C1O (some centres not stated) [PI(34:2)]
- collision cross section (N2) ([2]; [M+H]+): 291.6 Å²
- collision cross section (N2) ([2]; [M+NH4]+): 292.9 Å²
- collision cross section (N2) ([2]; [M-H]-): 282.4 Å²
- collision cross section (N2) ([3]; [M-H]-): 282.4 Å²

Structure (SMILES): CCCCC/C=C\C/C=C\CCCCCCCCCCCC(=O)O[C@H](COC(=O)CCCCCCC/C=C\C/C=C\CCCCC)COP(=O)(O)O[C@H]1C(O)C(O)C(O)[C@@H](O)C1O (some centres not stated) [PI(40:4)]
- collision cross section (N2) ([2]; [M+Na]+): 307.1 Å²
- collision cross section (N2) ([2]; [M-H]-): 298.2 Å²
- collision cross section (N2) ([3]; [M-H]-): 297.1 Å²
